{"source": "ChEMBL document CHEMBL3044870", "about": "“Effect of clomazone on various market classes of dry beans” (Crop Prot, 2007)", "type_in_all_cases": "organism-based", "details_in_all_cases": "in vivo, other", "key": {"[1]": {"system": "Phaseolus vulgaris", "experiment": "Phytotoxicity against Phaseolus vulgaris (black beans) assessed as yield at 2232 g a.i./ha applied pre-emergence 1 to 2 days post-planting measured on day 42 post-emergence (reference value: 3.6 tons/ha)"}, "[2]": {"system": "Phaseolus vulgaris", "experiment": "Phytotoxicity against Phaseolus vulgaris (cranberry beans) assessed as shoot dry weight at 2232 g a.i./ha applied pre-emergence 1 to 2 days post-planting measured on day 42 post-emergence (reference value: 161 g/m)"}, "[3]": {"system": "Phaseolus vulgaris", "experiment": "Phytotoxicity against Phaseolus vulgaris (kidney beans) assessed as yield at 1116 g a.i./ha applied pre-emergence 1 to 2 days post-planting measured on day 42 post-emergence (reference value: 2.3 tons/ha)"}, "[4]": {"system": "Phaseolus vulgaris", "experiment": "Phytotoxicity against Phaseolus vulgaris (white beans) assessed as shoot dry weight at 1116 g a.i./ha applied pre-emergence 1 to 2 days post-planting measured on day 42 post-emergence (reference value: 175 g/m)"}, "[5]": {"system": "Phaseolus vulgaris", "experiment": "Phytotoxicity against Phaseolus vulgaris (otebo beans) assessed as visual crop injury at 1116 g a.i./ha applied pre-emergence 1 to 2 days post-planting measured on day 14 post-emergence relative to control"}, "[6]": {"system": "Phaseolus vulgaris", "experiment": "Phytotoxicity against Phaseolus vulgaris (otebo beans) assessed as yield at 2232 g a.i./ha applied pre-emergence 1 to 2 days post-planting measured on day 42 post-emergence (reference value: 3.4 tons/ha)"}, "[7]": {"system": "Phaseolus vulgaris", "experiment": "Phytotoxicity against Phaseolus vulgaris (yellow eye beans) assessed as yield at 1116 g a.i./ha applied pre-emergence 1 to 2 days post-planting measured on day 42 post-emergence (reference value: 2.3 tons/ha)"}, "[8]": {"system": "Phaseolus vulgaris", "experiment": "Phytotoxicity against Phaseolus vulgaris (kidney beans) assessed as plant height at 2232 g a.i./ha applied pre-emergence 1 to 2 days post-planting measured on day 28 post-emergence (reference value: 37 cm)"}, "[9]": {"system": "Phaseolus vulgaris", "experiment": "Phytotoxicity against Phaseolus vulgaris (pinto beans) assessed as yield at 1116 g a.i./ha applied pre-emergence 1 to 2 days post-planting measured on day 42 post-emergence (reference value: 3.1 tons/ha)"}, "[10]": {"system": "Phaseolus vulgaris", "experiment": "Phytotoxicity against Phaseolus vulgaris (pinto beans) assessed as shoot dry weight at 1116 g a.i./ha applied pre-emergence 1 to 2 days post-planting measured on day 42 post-emergence (reference value: 168 g/m)"}, "[11]": {"system": "Phaseolus vulgaris", "experiment": "Phytotoxicity against Phaseolus vulgaris (yellow eye beans) assessed as plant height at 1116 g a.i./ha applied pre-emergence 1 to 2 days post-planting measured on day 28 post-emergence (reference value: 38 cm)"}, "[12]": {"system": "Phaseolus vulgaris", "experiment": "Phytotoxicity against Phaseolus vulgaris (yellow eye beans) assessed as shoot dry weight at 1116 g a.i./ha applied pre-emergence 1 to 2 days post-planting measured on day 42 post-emergence (reference value: 162 g/m)"}, "[13]": {"system": "Phaseolus vulgaris", "experiment": "Phytotoxicity against Phaseolus vulgaris (pinto beans) assessed as visual crop injury at 1116 g a.i./ha applied pre-emergence 1 to 2 days post-planting measured on day 14 post-emergence relative to control"}, "[14]": {"system": "Phaseolus vulgaris", "experiment": "Phytotoxicity against Phaseolus vulgaris (kidney beans) assessed as visual crop injury at 1116 g a.i./ha applied pre-emergence 1 to 2 days post-planting measured on day 14 post-emergence relative to control"}, "[15]": {"system": "Phaseolus vulgaris", "experiment": "Phytotoxicity against Phaseolus vulgaris (dry beans) assessed as visual crop injury at 2232 g a.i./ha applied pre-emergence 1 to 2 days post-planting measured on day 7 post-emergence relative to control"}, "[16]": {"system": "Phaseolus vulgaris", "experiment": "Phytotoxicity against Phaseolus vulgaris (yellow eye beans) assessed as shoot dry weight at 2232 g a.i./ha applied pre-emergence 1 to 2 days post-planting measured on day 42 post-emergence (reference value: 162 g/m)"}, "[17]": {"system": "Phaseolus vulgaris", "experiment": "Phytotoxicity against Phaseolus vulgaris (brown beans) assessed as yield at 1116 g a.i./ha applied pre-emergence 1 to 2 days post-planting measured on day 42 post-emergence (reference value: 2.5 tons/ha)"}, "[18]": {"system": "Phaseolus vulgaris", "experiment": "Phytotoxicity against Phaseolus vulgaris (brown beans) assessed as shoot dry weight at 1116 g a.i./ha applied pre-emergence 1 to 2 days post-planting measured on day 42 post-emergence (reference value: 149 g/m)"}, "[19]": {"system": "Phaseolus vulgaris", "experiment": "Phytotoxicity against Phaseolus vulgaris (pinto beans) assessed as plant height at 2232 g a.i./ha applied pre-emergence 1 to 2 days post-planting measured on day 28 post-emergence (reference value: 38 cm)"}, "[20]": {"system": "Phaseolus vulgaris", "experiment": "Phytotoxicity against Phaseolus vulgaris (dry beans) assessed as change in seed moisture content at 1116 to 2232 g a.i./ha applied pre-emergence 1 to 2 days post-planting relative to control"}, "[21]": {"system": "Phaseolus vulgaris", "experiment": "Phytotoxicity against Phaseolus vulgaris (cranberry beans) assessed as plant height at 1116 g a.i./ha applied pre-emergence 1 to 2 days post-planting measured on day 28 post-emergence (reference value: 37 cm)"}, "[22]": {"system": "Phaseolus vulgaris", "experiment": "Phytotoxicity against Phaseolus vulgaris (otebo beans) assessed as plant height at 2232 g a.i./ha applied pre-emergence 1 to 2 days post-planting measured on day 28 post-emergence (reference value: 38 cm)"}, "[23]": {"system": "Phaseolus vulgaris", "experiment": "Phytotoxicity against Phaseolus vulgaris (otebo beans) assessed as shoot dry weight at 1116 g a.i./ha applied pre-emergence 1 to 2 days post-planting measured on day 42 post-emergence (reference value: 188 g/m)"}, "[24]": {"system": "Phaseolus vulgaris", "experiment": "Phytotoxicity against Phaseolus vulgaris (pinto beans) assessed as yield at 2232 g a.i./ha applied pre-emergence 1 to 2 days post-planting measured on day 42 post-emergence (reference value: 3.1 tons/ha)"}, "[25]": {"system": "Phaseolus vulgaris", "experiment": "Phytotoxicity against Phaseolus vulgaris (yellow eye beans) assessed as plant height at 2232 g a.i./ha applied pre-emergence 1 to 2 days post-planting measured on day 28 post-emergence (reference value: 38 cm)"}, "[26]": {"system": "Phaseolus vulgaris", "experiment": "Phytotoxicity against Phaseolus vulgaris (white beans) assessed as yield at 2232 g a.i./ha applied pre-emergence 1 to 2 days post-planting measured on day 42 post-emergence (reference value: 3 tons/ha)"}, "[27]": {"system": "Phaseolus vulgaris", "experiment": "Phytotoxicity against Phaseolus vulgaris (otebo beans) assessed as shoot dry weight at 2232 g a.i./ha applied pre-emergence 1 to 2 days post-planting measured on day 42 post-emergence (reference value: 188 g/m)"}, "[28]": {"system": "Phaseolus vulgaris", "experiment": "Phytotoxicity against Phaseolus vulgaris (yellow eye beans) assessed as visual crop injury at 1116 g a.i./ha applied pre-emergence 1 to 2 days post-planting measured on day 14 post-emergence relative to control"}, "[29]": {"system": "Phaseolus vulgaris", "experiment": "Phytotoxicity against Phaseolus vulgaris (dry beans) assessed as visual crop injury at 1116 g a.i./ha applied pre-emergence 1 to 2 days post-planting measured on day 14 post-emergence relative to control"}, "[30]": {"system": "Phaseolus vulgaris", "experiment": "Phytotoxicity against Phaseolus vulgaris (black beans) assessed as shoot dry weight at 1116 g a.i./ha applied pre-emergence 1 to 2 days post-planting measured on day 42 post-emergence (reference value: 165 g/m)"}, "[31]": {"system": "Phaseolus vulgaris", "experiment": "Phytotoxicity against Phaseolus vulgaris (black beans) assessed as plant height at 1116 g a.i./ha applied pre-emergence 1 to 2 days post-planting measured on day 28 post-emergence (reference value: 34 cm)"}}, "data": [{"smiles": "CC1(C)CON(Cc2ccccc2Cl)C1=O", "note": "[CLOMAZONE]", "values": [{"measurement": "Crop_yield", "setting": "[1]", "result": 3.3, "unit": "tons/ha"}, {"measurement": "Activity", "setting": "[2]", "result": 137, "unit": "g/m"}, {"measurement": "Crop_yield", "setting": "[3]", "result": 2.3, "unit": "tons/ha"}, {"measurement": "Activity", "setting": "[4]", "result": 174, "unit": "g/m"}, {"measurement": "Activity", "setting": "[5]", "result": 3, "unit": "%"}, {"measurement": "Crop_yield", "setting": "[6]", "result": 3.2, "unit": "tons/ha"}, {"measurement": "Crop_yield", "setting": "[7]", "result": 2.6, "unit": "tons/ha"}, {"measurement": "Activity", "setting": "[8]", "result": 33, "unit": "cm"}, {"measurement": "Crop_yield", "setting": "[9]", "result": 3.1, "unit": "tons/ha"}, {"measurement": "Activity", "setting": "[10]", "result": 166, "unit": "g/m"}, {"measurement": "Activity", "setting": "[11]", "result": 36, "unit": "cm"}, {"measurement": "Activity", "setting": "[12]", "result": 160, "unit": "g/m"}, {"measurement": "Activity", "setting": "[13]", "result": 4, "unit": "%"}, {"measurement": "Activity", "setting": "[14]", "result": 5, "unit": "%"}, {"measurement": "Activity", "setting": "[15]", "result": 11, "unit": "%"}, {"measurement": "Activity", "setting": "[16]", "result": 130, "unit": "g/m"}, {"measurement": "Crop_yield", "setting": "[17]", "result": 2.6, "unit": "tons/ha"}, {"measurement": "Activity", "setting": "[18]", "result": 139, "unit": "g/m"}, {"measurement": "Activity", "setting": "[19]", "result": 32, "unit": "cm"}, {"measurement": "Activity", "setting": "[20]", "result": "Non-toxic"}, {"measurement": "Activity", "setting": "[21]", "result": 35, "unit": "cm"}, {"measurement": "Activity", "setting": "[22]", "result": 34, "unit": "cm"}, {"measurement": "Activity", "setting": "[23]", "result": 189, "unit": "g/m"}, {"measurement": "Crop_yield", "setting": "[24]", "result": 3, "unit": "tons/ha"}, {"measurement": "Activity", "setting": "[25]", "result": 32, "unit": "cm"}, {"measurement": "Crop_yield", "setting": "[26]", "result": 3.2, "unit": "tons/ha"}, {"measurement": "Activity", "setting": "[27]", "result": 168, "unit": "g/m"}, {"measurement": "Activity", "setting": "[28]", "result": 6, "unit": "%"}, {"measurement": "Activity", "setting": "[29]", "result": 4, "unit": "%"}, {"measurement": "Activity", "setting": "[30]", "result": 167, "unit": "g/m"}, {"measurement": "Activity", "setting": "[31]", "result": 34, "unit": "cm"}]}]}
